Patent US7914821B2, “Pharmaceutical composition for prevention and/or treatment of bone loss” (KO DA Pharmaceuticals Co., Ltd., priority 2008, dated 2011)

Legend:
Type in all cases: cell-based, rat
Bone cells [1] = test: Effect of p38 and ERK inhibitors on ALP activity in bone cells; conditions: 10 μM inhibitor with 10 μM imperatorin or bergapten, 48 hrs; FIG. 11C
Method: (§1) Rat primary osteoblast was isolated from the parietal bone of gestation day 18 embryos of Sprague-Dawley rats. After being slaughtered, the embryo rats were obtained from the uteruses of the rats, and calvarium was isolated from the embryo rats. Parietal bone was cut from the calvarium and digested by 0.1% collagenase for 20 minutes to release the bone cells from the bone tissue. The digestion step was repeated five times. The collected bone cells were cultured in α-MEM containing 1% penicillin-streptomycin and 10% FBS in a humidified atmosphere of 5 percent carbon dioxide. When cells were attached and confluence, they were sub-cultured, which was called “passage 2 (P2)”. The passage was for analogizing. 2 to 5 passage cells were used for the experiments.
Bone cells were cultured and treated with (1) 10 μM SB203580, (2) 10 μM PD98059, (3) 10 μM imperatori, (4) 10 μM bergapten, (5) 10 μM imperatorin+SB203580, (6) 10 μM bergapten+SB203580, (7) 10 μM imperatorin+PD98059 ? (8) 10 μM bergapten+PD98059 for 48 hrs. After treatment, the bone cells were lysed in 0.2% […] solution and centrifuged at 1500×g for 5 minutes. The supernatant was analyzed by an ALP kit such as described above to obtain the ALP activity. The ALP activity in the control group which was treated with 0.1% DMSO was defined as 100%. […]

EPK protein = test: Effect of ERK inhibitor on induced phosphorylation of EPK protein; conditions: inhibitor for 30 minutes before imperatorin and bergapten; FIGS. 11A-11B
Method: Bone cells was cultured in 6-well plate and treated with 10 μM of imperatorin and bergapten for 1, 3, 6, 12, and 24 hrs, respectively. After treatment, the culture medium was replaced with a lysis buffer containing 50 mM HEPES (PH 7.4), 150 mM NaCl, 4 mM EDTA, 10 mM Na4P2O7, 100 mM NaF, 2 mM Na3VO4, 1% (v/v) Triton X-100, 0.25% (w/v) sodium deoxycholate, 50 mM 4-(2-aminoethyl)benzene sulfonylfluoride, 50 μg/ml leupeptin, and 20 μg/ml aprotinin, and then centrifuged at 13000 rpm for 15 minutes to obtain the protein pellets. 30 μg of proteins were dissolved in 5× Laemmli buffer, boiled at 95° C. for 5 minutes, and then subjected to SDS-PAGE gel (8%) electrophoresis. Proteins on the gel were then transferred to a PVDF membrane. The PVDF membrane was blocked in 4% BSA solution for 1 hour at room temperature. The blocked membrane was then incubated in PBST buffer (0.1% Tween-20) containing p-SMAD, p-ERK, or p38 primary antibody. Following incubation with primary antibody, the membrane was washed three times with PBST, and then incubated for 1 hr at room temperature with the secondary antibody, an anti-mouse or anti-goat IgG labeled with horseradish peroxidase. Following incubation with the secondary antibody, the membrane was washed three times with PBST, and detected by an […] chemiluminescence using an ECL blotting substrate according to the manufacturer's instructions. […]

p38 = test: Effect of p38 inhibitor on induced phosphorylation of p38; conditions: inhibitor for 30 minutes before imperatorin and bergapten; FIGS. 11A-11B
Method: Bone cells was cultured in 6-well plate and treated with 10 μM of imperatorin and bergapten for 1, 3, 6, 12, and 24 hrs, respectively. […] 30 μg of proteins were dissolved in 5× Laemmli buffer, boiled at 95° C. for 5 minutes, and then subjected to SDS-PAGE gel (8%) electrophoresis. Proteins on the gel were then transferred to a PVDF membrane. The PVDF membrane was blocked in 4% BSA solution for 1 hour at room temperature. The blocked membrane was then incubated in PBST buffer (0.1% Tween-20) containing p-SMAD, p-ERK, or p38 primary antibody. Following incubation with primary antibody, the membrane was washed three times with PBST, and then incubated for 1 hr at room temperature with the secondary antibody, an anti-mouse or anti-goat IgG labeled with horseradish peroxidase. Following incubation with the secondary antibody, the membrane was washed three times with PBST, and detected by an enzyme-linked chemiluminescence using an ECL blotting substrate according to the manufacturer's instructions.
In the control group, a non-phosphorylation p38 and non-phosphorylation EPK proteins were subjected to SDS-PAGE gel electrophoresis.

Bone cells [2] = test: ALP activity with imperatorin, bergapten and noggin; conditions: 1 μg/ml noggin with 10 μM imperatorin or 10 μM bergapten, 48 hrs; FIG. 9C
Method: as §1
Bone cells were treated with (1) 10 μM imperatorin, (2) 10 μM bergapten, (3) 10 μM imperatorin+noggin, (4) 10 μM bergapten+noggin, and (5) 1 μg/ml noggin for 48 his, respectively. After treatment, the bone cells were lysed in 0.2% […] solution, and then centrifuged at 1500×g for 5 minutes to obtain a supernatant. The supernatant was analyzed by ALP kit as described above to obtain the ALP activity. The ALP activity in the control group which was treated with 0.1% DMSO was defined as 100%. Referring to FIG. 9C, noggin suppressed the imperatorin or bergapten induced-ALP activity.

`COc1cccc(-c2cc(=O)c3ccccc3o2)c1N` [PD98059] was tested, and the “imperatorin and bergapten induced-ALP activity” value (Bone cells [1]) was “suppressed” and the “imperatorin and bergapten induced-phosphorylation (EPK protein)” value (EPK protein) was “suppressed”.

`C[S+]([O-])c1ccc(-c2nc(-c3ccncc3)c(-c3ccc(F)cc3)[nH]2)cc1` (centres unmarked) [SB203580] was tested, and the “imperatorin and bergapten induced-ALP activity” value (Bone cells [1]) was “suppressed” and the “imperatorin and bergapten induced-phosphorylation (p38)” value (p38) was “suppressed”.

B1: noggin: noggin, 1 μg/ml, suppressed the imperatorin or bergapten induced-ALP activity (protein, UniProt Q13253 28-232, looked up)
Noggin: QHYLHIRPAPSDNLPLVDLIEHPDPIFDPKEKDLNETLLRSLLGGHYDPGFMATSPPEDRPGGGGGAAGGAEDLAELDQLLRQRPSGAMPSEIKGLEFSEGLAQGKKQRLSKKLRRKLQMWLWSQTFCPVLYAWNDLGSRFWPRYVKVGSCFSKRSCSVPEGMVCKPSKSVHLTVLRWRCQRRGGQRCGWIPIQYPIISECKCSC
B1 was tested, and the “imperatorin or bergapten induced-ALP activity” value (Bone cells [2]) was “suppressed”.
